# Test results: ChEMBL document CHEMBL1126425, “A partial pharmacophore for the platelet activating factor (PAF) receptor” (Bioorg Med Chem Lett, 1992)
# Target: Platelet-activating factor receptor (Homo sapiens, UniProt P25105)
# Experiment: Antagonistic activity for inhibition of [3H]PAF receptor binding to washed human platelet membranes.
# Sequence of Platelet-activating factor receptor (P25105 whole entry): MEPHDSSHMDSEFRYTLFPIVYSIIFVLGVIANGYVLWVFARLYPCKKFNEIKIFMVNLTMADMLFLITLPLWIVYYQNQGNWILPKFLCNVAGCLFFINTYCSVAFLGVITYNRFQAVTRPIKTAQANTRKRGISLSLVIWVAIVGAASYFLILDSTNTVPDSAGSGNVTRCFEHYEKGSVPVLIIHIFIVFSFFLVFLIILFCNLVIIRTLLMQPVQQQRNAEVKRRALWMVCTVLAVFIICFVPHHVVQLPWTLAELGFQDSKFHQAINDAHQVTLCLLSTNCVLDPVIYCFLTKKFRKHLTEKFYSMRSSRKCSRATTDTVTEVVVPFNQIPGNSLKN
row,IC50,Structure (SMILES)
1,2.3 nM,O=C([C@@H]1CSC(c2cccnc2)N1)N1CCN(CCCc2ccccc2)CC1 (stereo partly drawn)
2,0.015 nM,CCOC[C@H](CC(C)C)NS(=O)(=O)c1ccc(Cn2c(C)nc3cnccc32)cc1
3,500 nM,Cc1nc2ccccc2n1Cc1ccc(C(=O)N(C)C2CCCCC2)cc1
